Data on 8 compounds can be found in patent US4118583A, “Mixed esters of polyols” (Laboratories om Societe Anonyme, priority 1976, dated 1978).

The conditions of data set [1]: comparison value given in text, no source or test printed; cited from earlier work.
Data set [2] relates to cholesterol and triglycerides. Briefly: Hypocholesterolemiating and hypolipemiating activity in normolipemiating rats (Table III). Type of data set: in vivo. The conditions noted are these: rat, gastric probe, equivalent of 75 mg/kg clofibrate every 12 hours, 10 days; for Triglycerides: untreated 1.13; for Cholesterol: untreated 90.79; for Cholesterol, decrease / Triglycerides, decrease: versus untreated. Here is the method:
Groups of 10 normolipemiating rats were treated for 10 days, by gastric probe, with the equivalent of 75 mg/kg of clofibrate, administered every 12 hours. After 10 days, 12 hours after the last administration, they were sacrificed and the cholesterol and triglycerides analysed (Table III).

A short description of data set [3]: Acute toxicity on the male rat, p.o. (Table I). Particulars: in vivo, po. How it is done:
The acute toxicity of compounds I to VI was determined on the male rat (Table I).

Each structure is given as a SMILES string. Like-named read-outs stand apart in the source and are kept apart here. Where only a bound is given, the exact number is not on record here.

By LD50 is commonly meant the dose expected to kill half of the subjects tested.

Consider `CC(=O)Oc1ccccc1C(=O)O` [acetylsalicylic acid], for which the LD50 in data set [1] is 1750 mg/kg.

`CC(=O)Oc1ccccc1C(=O)OC(COC(=O)C(C)(C)Oc1ccc(Cl)cc1)COC(=O)C(C)(C)Oc1ccc(Cl)cc1` [Compound II, 1,3-di-(2-p-chlorophenoxy-2-methylpropionyloxy)-2-(acetylsalicyloxy)-propane]: in data set [2], the Triglycerides stood at 0.92 mm mole/l; the Cholesterol turned out to be 73.90 mg/100 ml; the “Cholesterol, decrease” value was determined as 19%; the “Triglycerides, decrease” value is given as 19%. This compound also gave a 50% lethal dose (LD50) in data set [3] above 7500 mg/kg.

Take `CCOC(=O)C(C)(C)Oc1ccc(Cl)cc1` [clofibrate, reference compound]: in data set [1], the LD50 was 1200 mg/kg. Also, in data set [2], the Triglycerides was determined as 0.83 mm mole/l; the Cholesterol is 65.24 mg/100 ml; the “Cholesterol, decrease” value amounted to 28%; the “Triglycerides, decrease” value is recorded as 27%.

As for `CC(=O)Oc1ccccc1C(=O)OCC(COC(=O)C(C)(C)Oc1ccc(Cl)cc1)OC(C)=O` (stereo not drawn) [Compound IV, 1-(acetylsalicyloxy)-3-(2-p-chlorophenoxy-2-methylpropionyloxy)-2-acetoxy-propane], in data set [2], the Triglycerides worked out at 0.97 mm mole/l; the Cholesterol was 72.12 mg/100 ml; the “Cholesterol, decrease” value worked out at 21%; the “Triglycerides, decrease” value is recorded as 14%. Also, in data set [3], the LD50 is above 5000 mg/kg.

With `CC(=O)Oc1ccccc1C(=O)OCC(COC(=O)C(C)(C)Oc1ccc(Cl)cc1)OS(=O)(=O)O` (stereo not drawn) [Compound V], in data set [2], the Triglycerides worked out at 0.89 mm mole/l; the Cholesterol is 68.38 mg/100 ml; the “Cholesterol, decrease” value amounted to 25%; the “Triglycerides, decrease” value was 21%. Also, the median lethal dose (LD50) in data set [3] is above 5000 mg/kg.

For `CC(=O)Oc1ccccc1C(=O)OCCOC(=O)C(C)(C)Oc1ccc(Cl)cc1` [Compound VI, 1-(acetylsalicyloxy)-2-(2-p-chlorophenoxy-2-methylpropionyloxy)-ethane], in data set [2], the Triglycerides is reported as 0.83 mm mole/l; the Cholesterol turned out to be 67.34 mg/100 ml; the “Cholesterol, decrease” value is recorded as 26%; the “Triglycerides, decrease” value is recorded as 27%. The compound further yielded an LD50 in data set [3] above 6000 mg/kg.

As for `CC(=O)Oc1ccccc1C(=O)OC1C(OC(=O)c2ccccc2OC(C)=O)C(OC(=O)C(C)(C)Oc2ccc(Cl)cc2)C(OC(=O)C(C)(C)Oc2ccc(Cl)cc2)C(OC(=O)C(C)(C)Oc2ccc(Cl)cc2)C1OC(=O)C(C)(C)Oc1ccc(Cl)cc1` (stereo not drawn) [Compound I, 1,2-di-(acetylsalicyl)-3,4,5,6-tetra-(2-p-chlorophenoxy-2-methylpropionyl)-meso-inositol], in data set [2], the Triglycerides turned out to be 0.96 mm mole/l; the Cholesterol is given as 78.25 mg/100 ml; the “Cholesterol, decrease” value is listed as 14%; the “Triglycerides, decrease” value was 15%. In data set [3], the LD50 was above 5000 mg/kg.

For the compound `CC(=O)Oc1ccccc1C(=O)OCC(COC(=O)C(C)(C)Oc1ccc(Cl)cc1)OC(=O)C(C)(C)Oc1ccc(Cl)cc1` (stereo not drawn) [Compound III, 3-(acetylsalicyloxy)-1,2-di-(2-p-chlorophenoxy-2-methylpropionyloxy)-propane], in data set [2], the Triglycerides amounted to 0.91 mm mole/l; the Cholesterol amounted to 75.63 mg/100 ml; the “Cholesterol, decrease” value was determined as 17%; the “Triglycerides, decrease” value was determined as 19%. In data set [3], this compound came in with an LD50 above 6200 mg/kg.
